We go through 11 compounds from PMC12362582, “Linker Methylation as a Strategy to Enhance PROTAC Oral Bioavailability: Insights from Molecular Properties and Conformational Analysis” (Journal of Medicinal Chemistry, 2025).

Holding throughout (assay type): physicochemical
Data set [1] is described as follows: log kW IAM (IAM.PC.DD2 column) and derived Δlog kW IAM polarity. Conditions: for log kW^IAM: IAM.PC.DD2 column, extrapolated, pH 7; for Δlog kW^IAM: log kW IAM – clog kW IAM (clog = 0.92*BRlogD – 1.03). How it is done: (§1) Lipophilicity was assessed using three chromatographic descriptors, each simulating distinct aspects of membrane environments. BRlogD is a surrogate of the octanol/water distribution coefficient (log D oct) reflecting a general partitioning across biological membranes. Log k W ^IAM implements an Immobilized Artificial Membrane (IAM) column which provides a lipophilicity index in an environment resembling the membrane phospholipids. Finally, log k′80 PLRP-S reflects retention in a hydrophobic polymeric column environment, mimicking the nonpolar core of lipid bilayers, and acts as a surrogate for the toluene/water partition coefficient (log D tol). Lipophilicity remained within a moderate range across all systems.
(§2) Polarity was quantified by Δlog k W ^IAM, a descriptor obtained from the experimental log k W ^IAM and BRlogD. In addition, we also measured EPSA (Table S2), another polarity descriptor based on a supercritical fluid chromatographic (SFC) system widely used in drug discovery.
(§3) All chromatographic measurements were performed using the Thermo Scientific Inc. HPLC DIONEX Ultimate 3000 connected to an RS diode array and the Chromeleon 7.2.10 software (www.thermofisher.com). 1.5 mL HPLC vials, 9 mm PP screw caps, and high-performance ergonomic single-channel variable volume pipettors from VWR Signature were used. A Eutech pH Meter 2700 was used to regulate the pH of each buffer and sample (www.fishersci.com). For all the chromatographic descriptors, the mobile phase consisted of an acetonitrile solution (ACN) and 20 mM AAB, pH 7. Moreover, 10 μL was set as the volume of injection of compound concentrations ranging from 50 to 100 μg/mL in ACN/buffer mixtures. One mL/min was chosen as the isocratic flow rate and 30 °C as the oven temperature. However, each chromatographic system (RP) had its own conditions:
This descriptor required the use of an IAM.PC.DD2 (300 Å, 10 μm, 10 cm × 4.6 mm) column from REGIS. The organic solvent of the eluent, ACN, was modified at various percentages (from 10 to 50%, v/v) and the retention times were measured. Next, the capacity factor (log k′) values were calculated as described elsewhere and the equation represented by the five was obtained. Lastly the extrapolated value at 100% ACN (0% aqueous buffer) or log k w ^IAM was obtained. Caffeine, carbamazepine, ketoprofen, theobromine, and toluene were checked daily as gold standards. ,
This polarity descriptor was calculated using the equation Δlog k w ^IAM = log k w ^IAM – clog k w ^IAM. Clog k w ^IAM, defined as the log k w ^IAM for neutral compounds with PSA = 0, has been correlated to BRlogD by our group with the equation: clog k w ^IAM= 0.92*BRlogD – 1.03.

Data set [2] is described as follows: log k'80 PLRP-S chromatographic lipophilicity. The settings on record: 80% ACN / 20% 20 mM ammonium acetate, pH 7.0. The protocol: Molecular properties have been quantified with physicochemical descriptors of ionization, lipophilicity, polarity and chameleonicity (see Methods). First, ionization of the 11 PROTACs (basic center, Figure a) was analyzed by potentiometry. However, standard pK a measurements in water were limited by solubility and precipitation issues (data not shown). Therefore, to assess the dominant species at physiological pH we adopted a chromatographic method previously published by some of us. Briefly, we monitored the trend of the capacity factor named log k′80 PLRP-S at different pHs (acid-neutral-basic). […] The most neutral feature of the considered PROTACs in in line with the main role played by the neutral species in crossing membranes.
as §1, §3
Log k′80 PLRP-S and Chamelogk, on the other hand, were measured using the PLRP-S polymeric reversed-phase column (100 Å, 5 μm, 50 × 4.6 mm) from Agilent (www.agilent.com). The assessment of log k′80 PLRP-S involved the measurement and calculation of the capacity factor of each sample at an eluent composition of 80% ACN and 20% 20 mM ammonium acetate at pH 7.0. In addition, acetone, caffeine, phenol and a mixture of uracile, acetophenone and toluene were used as gold standards. Moreover, log k′80 PLRP-S was also assessed at different pHs (2, 7 and 12) using 0.1% formate buffer, 0.1% ammonium acetate, and 10 mM triethylamine.

The nature of data set [3]: EPSA (supercritical fluid chromatography) and EPSA-to-TPSA ratio. The settings on record: for EPSA: supercritical fluid chromatographic (SFC) system, SFC-based polarity descriptor.
Description: as §2
Chameleonicity was monitored by Chamelogk, a recent chromatographic descriptor able to capture environment-dependent conformational changes by monitoring different mobile phase compositions on the PLRP-S column. All PROTACs behave as strong chameleons (Chamelogk > 0.6). Additionally, we calculated the EPSA-to-TPSA ratio (ETR), a recently proposed index for polarity masking. The ETR values remained consistently around 0.7 across the series, supporting the notion that conformational effects contribute uniformly to the polarity profiles of the analyzed PROTACs.

Data set [4] is described as follows: BRlogD chromatographic lipophilicity (XBridge Shield RP18). The settings on record: XBridge Shield RP18 HPLC column (130 Å, 5 µm, 5 cm × 4.6 mm); 60% ACN / 40% 20 mM ammonium acetate, pH 7. The protocol: as §1, §3
BRlogD as an analog of log Poct required the use of the XBridge Shield RP18 (130 Å, 5 μm, 5 cm × 4.6 mm) column by Waters (www.waters.com). The eluent was composed of a 60% ACN and 40% 20 mM ammonium acetate buffer (v/v) mixture. The retention time was measured for the analyte and the log k′60 was calculated (capacity factor k′60 = [t R (60% ACN) – t 0]/t 0) and then converted to the corresponding BRlogD value using the equation BRlogD = 3.31x + 2.79. In addition, acetone, caffeine, ibuprofen, lidocaine, phenol, and a mixture of uracile, acetophenone, and toluene were used as gold standards.

Bounds are passed on as bounds.

On to `Cc1ncsc1-c1ccc([C@H](CCCN2CCC(c3ccc4c(c3)n(C3CCCC3)c3nc(=O)c5c(Br)cccc5n43)CC2)NC(=O)[C@@H]2C[C@@H](O)CN2C(=O)[C@@H](NC(=O)C2(F)CC2)C(C)(C)C)cc1` [A3-1], for which, in data set [1], the “log kW^IAM” value is reported as 2.01 and the “Δlog kW^IAM” value was found to be 0.93. Also, the “log k'80 PLRP-S” value in data set [2] is given as 0.07. In data set [3], the EPSA turned out to be 133 A^2. The same compound displayed a chromatographic logD in data set [4] of 2.29.

Turning to `Cc1ncsc1-c1ccc([C@H](C[C@H](C)CN2CCC(c3ccc4c(c3)n(C3CCCC3)c3nc(=O)c5c(Br)cccc5n43)CC2)NC(=O)[C@@H]2C[C@@H](O)CN2C(=O)[C@@H](NC(=O)C2(F)CC2)C(C)(C)C)cc1` [A3-2], in data set [1], the “log kW^IAM” value was 2.21 and the “Δlog kW^IAM” value amounted to 0.21. Moreover, in data set [2], the “log k'80 PLRP-S” value stood at 0.18. Moreover, in data set [3], the “ETR (EPSA-to-TPSA ratio)” value came out at 0.68 and the EPSA was determined as 130 A^2. This compound came in with a chromatographic logD in data set [4] of 3.29.

As to `Cc1ncsc1-c1ccc([C@H](C[C@@H](C)CN2CCC(c3ccc4c(c3)n(C3CCCC3)c3nc(=O)c5c(Br)cccc5n43)CC2)NC(=O)[C@@H]2C[C@@H](O)CN2C(=O)[C@@H](NC(=O)C2(F)CC2)C(C)(C)C)cc1` [A3-3], in data set [1], the “log kW^IAM” value is recorded as 2.29 and the “Δlog kW^IAM” value was found to be 0.26. In addition, the “log k'80 PLRP-S” value in data set [2] is 0.32. For the same compound, in data set [3], the “ETR (EPSA-to-TPSA ratio)” value was found to be 0.70 and the EPSA was 130 A^2. In addition, in data set [4], the chromatographic logD stood at 3.32.

For the compound `Cc1ncsc1-c1ccc([C@H](CCCCCN2CCC(c3ccc4c(c3)n(C3CCCC3)c3nc(=O)c5c(Br)cccc5n43)CC2)NC(=O)[C@@H]2C[C@@H](O)CN2C(=O)[C@@H](NC(=O)C2(F)CC2)C(C)(C)C)cc1` [A5-1], in data set [1], the “log kW^IAM” value is 3.00 and the “Δlog kW^IAM” value was 1.77. Further, the “Δlog kW^IAM” value in data set [1] (listed as A5–1) is recorded as more than 1.5. Further, in data set [2], the “log k'80 PLRP-S” value was 0.03. Moreover, in data set [3], the “ETR (EPSA-to-TPSA ratio)” value came to 0.75 and the EPSA amounted to 136 A^2. The chromatographic logD in data set [4] worked out at 2.46.

For `Cc1ncsc1-c1ccc([C@H](CC[C@H](C)CCN2CCC(c3ccc4c(c3)n(C3CCCC3)c3nc(=O)c5c(Br)cccc5n43)CC2)NC(=O)[C@@H]2C[C@@H](O)CN2C(=O)[C@@H](NC(=O)C2(F)CC2)C(C)(C)C)cc1` [A5-2], in data set [1], the “log kW^IAM” value is 2.37 and the “Δlog kW^IAM” value was 0.85. In data set [2], the “log k'80 PLRP-S” value is given as 0.22. For the same compound, in data set [3], the “ETR (EPSA-to-TPSA ratio)” value was 0.73 and the EPSA came to 133 A^2. Moreover, the chromatographic logD in data set [4] stood at 2.76.

`Cc1ncsc1-c1ccc([C@H](CC[C@@H](C)CCN2CCC(c3ccc4c(c3)n(C3CCCC3)c3nc(=O)c5c(Br)cccc5n43)CC2)NC(=O)[C@@H]2C[C@@H](O)CN2C(=O)[C@@H](NC(=O)C2(F)CC2)C(C)(C)C)cc1` [A5-3]: in data set [1], the “log kW^IAM” value is listed as 2.38 and the “Δlog kW^IAM” value is reported as 0.83. Further, in data set [2], the “log k'80 PLRP-S” value was 0.28. For the same compound, in data set [3], the “ETR (EPSA-to-TPSA ratio)” value is given as 0.73 and the EPSA stood at 133 A^2. This compound also came in with a chromatographic logD in data set [4] of 2.8.

As for `Cc1ncsc1-c1ccc([C@@H](CC[C@@H](C)CCN2CCC(c3ccc4c(c3)n(C3CCCC3)c3nc(=O)c5c(Br)cccc5n43)CC2)NC(=O)[C@@H]2C[C@@H](O)CN2C(=O)[C@@H](NC(=O)C2(F)CC2)C(C)(C)C)cc1` [A5-4], in data set [1], the “log kW^IAM” value is given as 3.31 and the “Δlog kW^IAM” value worked out at 1.8. In addition, the “Δlog kW^IAM” value in data set [1] (listed as A5–4) is reported as more than 1.5. The “log k'80 PLRP-S” value in data set [2] is on record as 0.14. Besides, in data set [3], the “ETR (EPSA-to-TPSA ratio)” value amounted to 0.73 and the EPSA was found to be 134 A^2. This compound also returned a chromatographic logD in data set [4] of 2.76.

As to `Cc1ncsc1-c1ccc([C@H](COCCN2CCC(c3ccc4c(c3)n(C3CCCC3)c3nc(=O)c5c(Br)cccc5n43)CC2)NC(=O)[C@@H]2C[C@@H](O)CN2C(=O)[C@@H](NC(=O)C2(F)CC2)C(C)(C)C)cc1` [B-1], in data set [1], the “log kW^IAM” value is recorded as 1.97 and the “Δlog kW^IAM” value turned out to be 0.61. Also, the “log k'80 PLRP-S” value in data set [2] turned out to be 0.05. For the same compound, in data set [3], the “ETR (EPSA-to-TPSA ratio)” value came to 0.69 and the EPSA turned out to be 128 A^2. In data set [4], the chromatographic logD amounted to 2.64.

In the case of `Cc1ncsc1-c1ccc([C@H](CO[C@H](C)CN2CCC(c3ccc4c(c3)n(C3CCCC3)c3nc(=O)c5c(Br)cccc5n43)CC2)NC(=O)[C@@H]2C[C@@H](O)CN2C(=O)[C@@H](NC(=O)C2(F)CC2)C(C)(C)C)cc1` [B-2], in data set [1], the “log kW^IAM” value is recorded as 1.92 and the “Δlog kW^IAM” value was found to be 0.57. Moreover, the “log k'80 PLRP-S” value in data set [2] is on record as 0.05. Further, the “ETR (EPSA-to-TPSA ratio)” value in data set [3] is given as 0.68. Further, the chromatographic logD in data set [4] is 2.64.

As for `Cc1ncsc1-c1ccc([C@H](CO[C@@H](C)CN2CCC(c3ccc4c(c3)n(C3CCCC3)c3nc(=O)c5c(Br)cccc5n43)CC2)NC(=O)[C@@H]2C[C@@H](O)CN2C(=O)[C@@H](NC(=O)C2(F)CC2)C(C)(C)C)cc1` [B-3], in data set [1], the “log kW^IAM” value is given as 2.06 and the “Δlog kW^IAM” value was 0.58. In data set [2], the “log k'80 PLRP-S” value is listed as 0.08. For the same compound, in data set [3], the “ETR (EPSA-to-TPSA ratio)” value is 0.68 and the EPSA was 124 A^2. Also, in data set [4], the chromatographic logD is 2.58.

Regarding `Cc1ncsc1-c1ccc([C@H](COC(C)(C)CN2CCC(c3ccc4c(c3)n(C3CCCC3)c3nc(=O)c5c(Br)cccc5n43)CC2)NC(=O)[C@@H]2C[C@@H](O)CN2C(=O)[C@@H](NC(=O)C2(F)CC2)C(C)(C)C)cc1` [B-4], the “log kW^IAM” value in data set [1] is listed as 2.00. Moreover, the “log k'80 PLRP-S” value in data set [2] worked out at 0.11. Moreover, in data set [3], the “ETR (EPSA-to-TPSA ratio)” value is 0.67 and the EPSA turned out to be 127 A^2. Further, the chromatographic logD in data set [4] turned out to be 3.25.
